Test results: US20120321694A1, “COMPOSITIONS AND USES” (priority 2010, published 2012)
Where no end group is shown, it is not given here. The star is where a group is joined. Pam3Cys = N-terminal lipid (lipidation), CCCCCCCCCCCCCCCC(=O)N[C@@H](CSCC(COC(=O)CCCCCCCCCCCCCCC)OC(=O)CCCCCCCCCCCCCCC)C(=O)*

Columns and labels:
BV2 microglia cells = assay: In vitro phagocytosis of Aβ1-42 in BV2 cells (Western blot); type: cell-based, mouse; details: 5 μg/mL cytochalasin D, 30 min before; FIG. 16
Description: For total Aβ detection, 10-30 μg of cell extracts were separated on a precast 10-20% SDS polyacrylamide Tris-Tricine gel (Bio-Rad, Canada). Separated proteins were then transferred onto polyvinylidene fluoride (PVDF) membranes (PerkinElmer, Canada). Membrane were incubated in DPBS (Gibco, USA) at 90° C. for 10 min. […] Films were digitalized using a HP Scanjet 4370 (HP) and signal intensity was measured using ImageJ (version 1.44p, NIH).
BV2 microglia cells were seeded at 900000 cells/60 mm cell culture Petri dish 24 hours prior the experiment, and cultured in complete media (Dulbecco's Modified Eagle Medium (DMEM, Gibco, USA) supplemented with 10% fetal bovine serum (FBS) (Gibco, USA), 1 mM sodium pyruvate (Gibco, USA) and 100 U/mL of penicillin and 100 μg/mL of streptomycin (Gibco, USA)). […] Protein concentration in supernatant or cell extracts was then measured using the Bradford method (Coomassie Plus, The better Bradford assay reagent, Thermoscientific, USA) accordingly to the manufacturer recommendation and equal amount of protein were then analyzed by Western blot. […]

Aβ42 = assay: Anti-Aβ42 immunogenicity in amyloid deposition mouse model; type: in vivo, TASTPM mice; details: 12 injections, intramuscular route; FIG. 29
TASTPM mice [1] = assay: T-water maze in TASTPM mice; type: in vivo; details: 12 weekly i.m. injections; vs PBS; FIG. 30
Description: To determine whether a TLR2 agonist will improve the cognitive impairment in TASTPM mice, the Pam3CysLip adjuvant fused to the Aβ1-6 peptide was injected 12 times at weekly basis using the intramuscular route and the memory was assessed using the T-water maze test. […] TASTPM mice have received one a week for a period of 12 weeks the following treatment: PBS or mice have received once a week for a period of 12 weeks the following treatment: PBS or of Pam3CysLip Aβ1-6 peptide.

TASTPM mice [2] = assay: Survival of TASTPM mice; type: in vivo; details: weekly injections, followed for 112 days; PBS 13 out 25; FIG. 31
Source text: The usage of the TLR2 agonist, i.e. Pam3CysLip Aβ1-6 peptide, improves the survival rate of TASTPM mouse model. 23 out of 25 mice survived after weekly injections of Pam3CysLip Aβ1-6 peptide compared to PBS injected animals in which only 13 out 25 TASTPM mice survived (followed for 112 days).

Molecule	effect on 2E7-stimulated cellular uptake of Aβ1-42 (BV2 microglia cells)	anti Aβ42 specific immunogenicity (Aβ42)	T-water maze, right-left discrimination tests (working memory) (TASTPM mice [1])	mice survived (TASTPM mice [2])
C=C1[C@@H](C)[C@H]2[C@H](Cc3ccccc3)NC(=O)[C@]23[C@H](OC(C)=O)/C=C/[C@@](C)(O)C(=O)[C@@H](C)C/C=C/[C@H]3[C@@H]1O [cytochalasin D]	further inhibited	–	–	–
Pam3Cys—SQ EPAAPAAEAT PAAEAPDAEFRH (Pam3Cys-SQEPAAPAAEATPAAEAPDAEFRH) [Pam3CysLip Aβ1-6 peptide]	–	High and specific anti Aβ42 specific immunogenicity	trend of improvement	23 out of 25
